# In US20210113492A1, “METHOD FOR INHIBITING PROLIFERATION AND METASTASIS OF CANCER CELLS BY USING NAPHTHOQUINONE DERIVATIVE” (National Tsing Hua University, priority 2019, published 2021):
# Assays:
# [1] = tested on: human primary glioblastoma cells (U87); assay: MTT survival assay, U87; assay type: cell-based; conditions: 48 h, read-out: IC50, survival rate
# Description: According to the present invention, Human primary glioblastoma cell line U87 were obtained from the American Type Culture Collection (ATCC® HTB-14™, Manassas, Va., USA) and grown in DMEM medium supplemented with 10% FBS, 1% MEM Non-Essential Amino Acids Solution (Invitrogen) and 1% penicillin/streptomycin (Invitrogen). The incubator was maintained at 5% CO2 and a constant temperature of 37° C., and the culture medium was changed every two days.
# (§1) Isoplumbagin (AKOS006277326, acquired from AKos GmbH, Steinen, Germany) was dissolved in dimethyl sulfoxide (DMSO) and added to the medium, so that the final concentration of DMSO was less than 0.1%. The survival rate of isoplumbagin on OC3-IV2, U87, H1299 and PC3 cell lines was determined using the 3-(4,5-dimethylthiazol-2-yl)-2,5-diphenyltetrazolium bromide (MTT; Sigma-Aldrich) assays. 3×10^3 cells/well were seeded in 96-well plates. After incubation for 24 h, cells were treated with isoplumbagin at various concentrations (0, 1, 5, 10, 25, 50 and 100 μM) and incubated for a further 48 h. At the end of treatment, 10 μL 5 mg/mL MTT was added to each well. After incubation at 37° C. for 3 h, medium was removed and DMSO was added to each well to dissolve reduced MTT product formazan. The absorbance of dissolved formazan was measured at 550 nm wavelengths by a spectrophotometer. […]
# [2] = tested on: human non-small cell lung carcinoma cells (H1299); assay: MTT survival assay, H1299; assay type: cell-based; conditions: NCI-H1299, 48 h, read-out: IC50, survival rate
# Description: According to the present invention, human non-small cell lung carcinoma cell H1299 were obtained from ATCC (ATCC® CRL-5803™) cultured in Roswell Park Memorial Institute (RPMI) 1640 medium (Invitrogen) containing 10% FBS, 1% L-Gln and 1% AA. Cells were maintained in a humidified atmosphere containing 5% CO2 at 37° C., and the culture medium was replaced every 2 days.
# as §1
# [3] = tested on: human primary glioblastoma cells (U87); assay: Boyden chamber invasion assay, U87; assay type: cell-based; conditions: 2.5, 5 and 10 μM, 24 h, no dose dependency (FIG. 2B)
# Description: (§2) Cells were harvested by […] and resuspended in a serum-free medium with 0.1% BSA. Then, […] of cell suspension (2×10^5 cells) was seeded into the upper insert of SPLInsert with Polyethylene terephthalate (PET) membrane (pore size: 8.0 μm) (SPL Lifesciences, Korea) pre-coated with matrigel (BD Biosciences, San Jose, Calif.). The bottom well of 24-well plate of SPLInsert was filled with cell medium containing 10% FBS with different concentrations of isoplumbagin (5, 7.5 and 10 μM, Experimental group of oral squamous cell carcinoma cells (OC3-IV2); 2.5, 5 and 10 μM, Experimental groups of human primary glioblastoma cells (U87), human non-small cell lung carcinoma cells (H1299), human prostate cancer cells (PC3) and human cervical cancer cells (Hela)) or without isoplumbagin (DMSO added). […] Number of cells was counted using Image J. Relative invasion ability was calculated as cell number per area.
# (§3) FIGS. 2A-2E show the inhibitory effect of different doses of isoplumbagin on invasion for oral squamous cell carcinoma cells (OC3-IV2), human primary glioblastoma cells (U87), human non-small cell lung carcinoma cells (H1299), prostate cancer cells (PC3) and cervical cancer cells (Hela) assessed with the Boyden chamber assays. *Compared with solvent control (DMSO). […]
# [4] = tested on: human prostate cancer cells (PC3); assay: Boyden chamber invasion assay, PC3; assay type: cell-based; conditions: 2.5, 5 and 10 μM, 24 h, dose dependency (FIG. 2D)
# Description: as §2, §3
# [5] = tested on: oral squamous cell carcinoma cells (OC3-IV2); assay: Mitochondrial morphology and distribution by immunofluorescence staining, OC3-IV2; assay type: cell-based, human; conditions: 1 μM or 2.5 μM, 24 hours, anti-TOM20 staining
# Description: The effects of isoplumbagin on mitochondrial morphology and distribution of OC3-IV2, U87, H1299 and PC3 cell lines were measured by immunofluorescence staining After OC3-IV2, U87, H1299, and PC3 cells were treated with DMSO, 1 μM, or 2.5 μM isoplumbagin for 24 hours, cells were fixed by 4% (v/v) paraformaldehyde and permeabilized by 0.1% (v/v) Triton X-100. Cells were incubated in blocking buffer containing 1% bovine serum albumin. After blocking, cells were incubated overnight with indicated primary antibodies against TOM20 (a mitochondria marker, sc-11415, Santa Cruz), and then incubated with Alexa Fluor 488-conjugated secondary antibodies (A11001, Invitrogen). Nucleus was stained with DAPI, actin was stained with rhodamine phalloidin (A12379, Invitrogen) and cells were mounted using Prolong Gold reagent (P36930, Invitrogen). 63 images were taken by LSM800 confocal microscopes (Zeiss).
# FIGS. 5A-5D show the effect of isoplumbagin on mitochondrial morphogenesis and distribution of oral squamous cell carcinoma cells (OC3-IV2), human primary glioblastoma cells (U87), human non-small cell lung carcinoma cells (H1299) and human prostate cancer cells (PC3). Cells treated with either solvent control (DMSO) or isoplumbagin were determined by immunofluorescence staining using anti-TOM20 (mitochondria, green) antibody, rhodamine phalloidin (actin, red) and DAPI (nucleus, blue). […]
smiles,measurement,setting,value
"CC1=CC(=O)c2cccc(O)c2C1=O [isoplumbagin, 5-hydroxy-3-methyl-1,4-naphthoquinone]",IC50,[1],0.45 µg/mL
same,IC50,[2],0.28 µg/mL
same,cancer cells migrating through the membrane (invasion),[3],decrease significantly
same,cancer cells migrating through the membrane (invasion),[4],decrease significantly
same,mitochondrial morphogenesis and distribution,[5],can alter the mitochondrial morphogenesis and distribution
